Patent US20080207527A1, “Bicyclic Compounds Which Inhibit Beta-Secretase Activity and Methods of Use Thereof” (CoMentis, Inc., priority 2004, published 2008)

Tests used:
memapsin 2 = memapsin 2 (Homo sapiens, UniProt P56817); test: Inhibition of memapsin 2 beta-secretase activity toward fluorogenic substrate FS-2; type: biochemical; conditions: pH 4, 37° C., 20 minutes pre-incubation, read-out: M2 Ki
Protocol: Potency of compounds were determined by measurement of their inhibition of memapsin 2 activity toward a fluorescent substrate. […] Briefly, assays were performed at pH 4, 37° C., by pre-incubation of memapsin 2 enzyme with compound for 20 minutes. Activity measure was initiated by addition of a fluorogenic substrate FS-2 (Bachem Americas, Torrance, Calif.). Fluorescent signal increase over time was measured as a rate of hydrolysis of the peptide substrate.

memapsin 1 = biological target: T1, memapsin 1 (Homo sapiens, UniProt Q9Y5Z0); test: Inhibition of memapsin 1 beta-secretase activity (substrate peptide hydrolysis, MALDI-TOF); type: biochemical; conditions: pH 4.1, 37 degrees C., read-out: M1 Ki
T1 sequence (Q9Y5Z0 63-518): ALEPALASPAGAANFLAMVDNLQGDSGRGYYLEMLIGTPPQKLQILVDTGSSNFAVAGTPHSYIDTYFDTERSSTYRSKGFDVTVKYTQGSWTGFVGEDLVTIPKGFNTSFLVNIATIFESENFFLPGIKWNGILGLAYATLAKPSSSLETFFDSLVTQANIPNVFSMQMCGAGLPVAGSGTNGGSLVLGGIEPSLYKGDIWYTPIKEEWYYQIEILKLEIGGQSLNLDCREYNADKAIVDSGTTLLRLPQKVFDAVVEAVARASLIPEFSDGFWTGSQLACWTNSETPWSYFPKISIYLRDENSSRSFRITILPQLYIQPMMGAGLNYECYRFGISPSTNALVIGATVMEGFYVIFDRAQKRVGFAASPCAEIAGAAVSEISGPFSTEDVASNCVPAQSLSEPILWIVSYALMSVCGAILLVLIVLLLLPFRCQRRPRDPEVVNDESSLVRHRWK

Cathepsin D = Cathepsin D (Homo sapiens, UniProt P07339); test: Inhibition of cathepsin D activity (substrate peptide hydrolysis, MALDI-TOF); type: biochemical; conditions: pH 4.1, 37 degrees C., read-out: Cath D Ki
Cathepsin D, sequence (P07339 65-412, species assumed): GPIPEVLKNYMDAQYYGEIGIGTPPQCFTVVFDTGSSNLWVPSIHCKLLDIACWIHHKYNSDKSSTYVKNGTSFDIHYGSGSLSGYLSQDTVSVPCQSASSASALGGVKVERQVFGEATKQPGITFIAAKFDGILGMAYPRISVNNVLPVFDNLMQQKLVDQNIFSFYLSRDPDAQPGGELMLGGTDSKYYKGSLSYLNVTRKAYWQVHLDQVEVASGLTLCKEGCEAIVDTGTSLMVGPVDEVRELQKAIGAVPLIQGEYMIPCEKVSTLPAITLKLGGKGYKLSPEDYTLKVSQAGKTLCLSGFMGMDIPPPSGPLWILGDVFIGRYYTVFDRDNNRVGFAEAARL

Aβ production = test: Cellular Aβ IC50 determination (Aβ40 sandwich ELISA); type: cell-based; conditions: Cricetulus griseus, Chinese hamster ovary cells over-expressing human APP695 with London and Swedish mutations, 24 h
Protocol: The potency of compounds against memapsin 2 activity was determined in a cellular assay of Aβ production. […] Chinese hamster ovary cells that over-express human APP695 with the London and Swedish mutations were seeded in multi-well plates at 10% confluency. Compounds were dissolved in DMSO to concentrations near 1 mM, and diluted into culture media to a final concentration near 4 μM (final 0.4% DMSO). Compounds were diluted serially and applied to cells in multi-well plates 48 h after seeding. Incubation was continued in 5% CO2 at 37 degrees C. for 24 h. Aliquots were removed and assayed for Aβ40 content using a sandwich ELISA (BioSource International). Amount of Aβ40 over the range of concentration of compounds, relative to control incubations, were fit to a 4-parameter IC50 model.

memapsin 2, sequence (P56817 46-501): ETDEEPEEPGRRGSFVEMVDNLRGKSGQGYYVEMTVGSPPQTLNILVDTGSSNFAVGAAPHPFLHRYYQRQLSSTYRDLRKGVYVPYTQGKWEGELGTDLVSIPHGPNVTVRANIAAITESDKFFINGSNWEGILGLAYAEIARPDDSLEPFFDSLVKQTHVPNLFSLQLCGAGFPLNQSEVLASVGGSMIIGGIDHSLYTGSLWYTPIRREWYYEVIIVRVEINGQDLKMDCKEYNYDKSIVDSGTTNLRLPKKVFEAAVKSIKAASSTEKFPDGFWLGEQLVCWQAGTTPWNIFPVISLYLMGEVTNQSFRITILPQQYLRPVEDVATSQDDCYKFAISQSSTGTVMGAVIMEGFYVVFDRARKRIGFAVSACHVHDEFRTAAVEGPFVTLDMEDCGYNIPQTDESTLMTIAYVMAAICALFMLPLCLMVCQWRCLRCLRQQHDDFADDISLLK

Row | Ki (memapsin 2) [µM] | Ki (memapsin 1) [µM] | Ki (Cathepsin D) [µM] | IC50 (Aβ production) [µM] | Structure (SMILES)
1 | 0.405 to 2 | < 0.405 | < 0.405 | < 5 | CC(C)CNC(=O)C(NC(=O)C(C)CC(O)C(CC(C)C)NC(=O)c1cc(C(=O)NC(C)c2ccccc2)cc(S(=O)(=O)N(C)C)c1)C(C)C (stereo not shown) [5-(N,N-dimethylsulfamoyl)-N1-(5-hydroxy-8-(1-(isobutylamino)-3-methyl-1-oxobutan-2-ylamino)-2,7-dimethyl-8-oxooctan-4-yl)-N3-(1-phenylethyl)isophthalamide]
2 | < 0.405 | < 0.405 | < 0.405 | 5 to 10 | CC(=O)Nc1cc(C(=O)NC(C)c2ccccc2)cc(C(=O)NC(CC(C)C)C(O)CC(C)C(=O)NC(C(=O)NCC(C)C)C(C)C)c1 (stereo not shown) [5-acetamido-N1-(5-hydroxy-8-(1-(isobutylamino)-3-methyl-1-oxobutan-2-ylamino)-2,7-dimethyl-8-oxooctan-4-yl)-N3-(1-phenylethyl)isophthalamide]
3 | 0.405 to 2 | < 0.405 | < 0.405 | 10 to 20 | CC(C)CNC(=O)C(NC(=O)C(C)CC(O)C(CC(C)C)NC(=O)c1cc(F)cc(C(=O)NC(C)c2ccccc2)c1)C(C)C (stereo not shown) [5-fluoro-N1-(5-hydroxy-8-(1-(isobutylamino)-3-methyl-1-oxobutan-2-ylamino)-2,7-dimethyl-8-oxooctan-4-yl)-N3-(1-phenylethyl)isophthalamide]
4 | < 0.405 | < 0.405 | < 0.405 | < 5 | CCCN(CCC)C(=O)c1cccc(C(=O)NC(Cc2cc(F)cc(F)c2)C(O)CC(C)C(=O)NCC(C)C)c1 (stereo not shown) [N1-(1-(3,5-difluorophenyl)-3-hydroxy-6-(isobutylamino)-5-methyl-6-oxohexan-2-yl)-N3,N3-dipropylisophthalamide]
5 | 0.405 to 2 | < 0.405 | < 0.405 | 10 to 20 | CCCN(CCC)C(=O)c1cccc(C(=O)NC(Cc2ccc(OC)c(Cl)c2)C(O)CC(C)C(=O)NC(C(=O)NCC(C)C)C(C)C)c1 (stereo not shown) [N1-(1-(3-chloro-4-methoxyphenyl)-3-hydroxy-6-(1-(isobutylamino)-3-methyl-1-oxobutan-2-ylamino)-5-methyl-6-oxohexan-2-yl)-N3,N3-dipropylisophthalamide]
6 | 0.405 to 2 | 0.405 to 2 | 0.405 to 2 | > 20 | CC(C)CC(NC(=O)c1cc(C(=O)NC2c3ccccc3CC2O)cc(N(C)S(C)(=O)=O)c1)C(O)CC(C)C(=O)NC(C(=O)NC(C)C)C(C)C (stereo not shown) [N1-(2-hydroxy-2,3-dihydro-1H-inden-1-yl)-N3-(5-hydroxy-8-(1-(isopropylamino)-3-methyl-1-oxobutan-2-ylamino)-2,7-dimethyl-8-oxooctan-4-yl)-5-(N-methylmethylsulfonamido)isophthalamide]
7 | < 0.405 | < 0.405 | < 0.405 | 5 to 10 | CCCN(CCC)C(=O)c1cccc(C(=O)NC(Cc2ccc(OC)cc2)C(O)CC(C)C(=O)NC(C(=O)NCC(C)C)C(C)C)c1 (stereo not shown) [N1-(3-hydroxy-6-(1-(isobutylamino)-3-methyl-1-oxobutan-2-ylamino)-1-(4-methoxyphenyl)-5-methyl-6-oxohexan-2-yl)-N3,N3-dipropylisophthalamide]
8 | < 0.405 | 0.405 to 2 | 0.405 to 2 | < 5 | CC(C)CC(NC(=O)c1cc(C(=O)NC(C)c2ccccc2)cc(N(C)S(C)(=O)=O)c1)C(O)CC(C)C(=O)NC(C(=O)NCC1CCCN1C)C(C)C (stereo not shown) [N1-(5-hydroxy-2,7-dimethyl-8-(3-methyl-1-((1-methylpyrrolidin-2-yl)methylamino)-1-oxobutan-2-ylamino)-8-oxooctan-4-yl)-5-(N-methylmethylsulfonamido)-N3-(1-phenylethyl)isophthalamide]
9 | < 0.405 | < 0.405 | < 0.405 | < 5 | CC(C)CC(NC(=O)c1cc(C(=O)NC(C)c2ccccc2)cc(N(C)S(C)(=O)=O)c1)C(O)CC(C)C(=O)NC(C(=O)NCc1ccccn1)C(C)C (stereo not shown) [N1-(5-hydroxy-2,7-dimethyl-8-(3-methyl-1-oxo-1-(pyridin-2-ylmethylamino)butan-2-ylamino)-8-oxooctan-4-yl)-5-(N-methylmethylsulfonamido)-N3-(1-phenylethyl)isophthalamide]
10 | < 0.405 | < 0.405 | 0.405 to 2 | < 5 | CC(C)CC(NC(=O)c1cc(C(=O)NC(C)c2ccccc2)cc(N(C)S(C)(=O)=O)c1)C(O)CC(C)C(=O)NC(C(=O)NCc1cccnc1)C(C)C (stereo not shown) [N1-(5-hydroxy-2,7-dimethyl-8-(3-methyl-1-oxo-1-(pyridin-3-ylmethylamino)butan-2-ylamino)-8-oxooctan-4-yl)-5-(N-methylmethylsulfonamido)-N3-(1-phenylethyl)isophthalamide]
11 | < 0.405 | < 0.405 | < 0.405 | < 5 | CC(C)CC(NC(=O)c1cc(C(=O)NC(C)c2ccccc2)cc(N(C)S(C)(=O)=O)c1)C(O)CC(C)C(=O)NC(C(=O)NCc1ccncc1)C(C)C (stereo not shown) [N1-(5-hydroxy-2,7-dimethyl-8-(3-methyl-1-oxo-1-(pyridin-4-ylmethylamino)butan-2-ylamino)-8-oxooctan-4-yl)-5-(N-methylmethylsulfonamido)-N3-(1-phenylethyl)isophthalamide]
12 | 0.405 to 2 | > 5 | 2 to 5 | 10 to 20 | CC(C)CC(NC(=O)c1cc(C(=O)NC(C)c2ccccc2)cc(N(C)S(C)(=O)=O)c1)C(O)CC(C)C(=O)NC(C)c1ccccc1 (stereo not shown) [N1-(5-hydroxy-2,7-dimethyl-8-oxo-8-(1-phenylethylamino)octan-4-yl)-5-(N-methylmethylsulfonamido)-N3-(1-phenylethyl)isophthalamide]
13 | < 0.405 | < 0.405 | < 0.405 | < 5 | CCC(NC(=O)C(C)CC(O)C(CC(C)C)NC(=O)c1cc(C(=O)NC(C)c2ccccc2)cc(N(C)S(C)(=O)=O)c1)C(=O)NCC(C)C (stereo not shown) [N1-(5-hydroxy-8-(1-(isobutylamino)-1-oxobutan-2-ylamino)-2,7-dimethyl-8-oxooctan-4-yl)-5-(N-methylmethylsulfonamido)-N3-(1-phenylethyl)isophthalamide]
14 | < 0.405 | 0.405 to 2 | 0.405 to 2 | > 20 | CC(C)CNC(=O)C(NC(=O)C(C)CC(O)C(CC(C)C)NC(=O)c1cc(C(=O)NCc2cnccn2)cc(N(C)S(C)(=O)=O)c1)C(C)C (stereo not shown) [N1-(5-hydroxy-8-(1-(isobutylamino)-3-methyl-1-oxobutan-2-ylamino)-2,7-dimethyl-8-oxooctan-4-yl)-5-(N-methylmethylsulfonamido)-N3-(pyrazin-2-ylmethyl)isophthalamide]
15 | < 0.405 | < 0.405 | < 0.405 | < 5 | Cc1cc(C(=O)NC(CC(C)C)C(O)CC(C)C(=O)NC(C(=O)NCC(C)C)C(C)C)cc(C(=O)N(C)Cc2nc(C)cs2)c1 (stereo not shown) [N1-(5-hydroxy-8-(1-(isobutylamino)-3-methyl-1-oxobutan-2-ylamino)-2,7-dimethyl-8-oxooctan-4-yl)-N3,5-dimethyl-N3-((4-methylthiazol-2-yl)methyl)isophthalamide]
16 | < 0.405 | 0.405 to 2 | < 0.405 | 10 to 20 | CCCN(Cc1nc(C)cs1)C(=O)c1cccc(C(=O)NC(CC(C)C)C(O)CC(C)C(=O)NC(C(=O)NCC(C)C)C(C)C)c1 (stereo not shown) [N1-(5-hydroxy-8-(1-(isobutylamino)-3-methyl-1-oxobutan-2-ylamino)-2,7-dimethyl-8-oxooctan-4-yl)-N3-((4-methylthiazol-2-yl)methyl)-N3-propylisophthalamide]
17 | < 0.405 | 0.405 to 2 | < 0.405 |  | Cc1nc(CN(C)C(=O)c2cccc(C(=O)NC(CC(C)C)C(O)CC(C)C(=O)NC(C(=O)NCC(C)C)C(C)C)c2)c(C)o1 (stereo not shown) [N1-((2,5-dimethyloxazol-4-yl)methyl)-N3-(5-hydroxy-8-(1-(isobutylamino)-3-methyl-1-oxobutan-2-ylamino)-2,7-dimethyl-8-oxooctan-4-yl)-N1-methylisophthalamide]
18 | 0.405 to 2 | < 0.405 | < 0.405 |  | COC(=O)N(C)c1cc(C(=O)NC(C)c2ccccc2)cc(C(=O)NC(CC(C)C)C(O)CC(C)C(=O)NC(C(=O)NCC(C)C)C(C)C)c1 (stereo not shown) [methyl 3-(5-hydroxy-8-(1-(isobutylamino)-3-methyl-1-oxobutan-2-ylamino)-2,7-dimethyl-8-oxooctan-4-ylcarbamoyl)-5-(1-phenylethylcarbamoyl)phenyl(methyl)carbamate]
